Data reported in PubChem BioAssay (NCI).
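96-well plates; 48 h exposure; 5 concentrations. Endpoints by linear interpolation between flanking doses. Not reached: highest tested concentration assigned. GI50 is the concentration that inhibits growth by half. TGI: total growth inhibition.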

Tests used:
Assay in all cases: NCI-60 cell line screen, 48 h
IGROV1 ovarian = tested on: IGROV1 ovarian
UACC-62 melanoma = tested on: UACC-62 melanoma
786-0 renal = tested on: 786-0 renal
PC-3 prostate = tested on: PC-3 prostate
SF-295 CNS = tested on: SF-295 CNS
NCI-H226 lung = tested on: NCI-H226 lung
SK-OV-3 ovarian = tested on: SK-OV-3 ovarian
RXF 393 renal = tested on: RXF 393 renal
RPMI-8226 leukemia = tested on: RPMI-8226 leukemia
SK-MEL-28 melanoma = tested on: SK-MEL-28 melanoma

SMILES	GI50 (IGROV1 ovarian) [µM]	TGI (IGROV1 ovarian) [µM]	GI50 (UACC-62 melanoma) [µM]	TGI (UACC-62 melanoma) [µM]	GI50 (786-0 renal) [µM]	TGI (786-0 renal) [µM]	GI50 (PC-3 prostate) [µM]	TGI (PC-3 prostate) [µM]	GI50 (SF-295 CNS) [µM]	TGI (SF-295 CNS) [µM]	GI50 (NCI-H226 lung) [µM]	TGI (NCI-H226 lung) [µM]	GI50 (SK-OV-3 ovarian) [µM]	TGI (SK-OV-3 ovarian) [µM]	GI50 (RXF 393 renal) [µM]	TGI (RXF 393 renal) [µM]	GI50 (RPMI-8226 leukemia) [µM]	TGI (RPMI-8226 leukemia) [µM]	GI50 (SK-MEL-28 melanoma) [µM]	TGI (SK-MEL-28 melanoma) [µM]
CC(=O)O[C@H]1Cc2c([nH]c3ccccc23)[C@@H](c2ccc(Cl)cc2)N1C(=O)CCNC(C)(C)C	2.19	7.77	3.92	8.28	3.64	7.92	3.48	8.12	4.54	9.01	2.11	7.15	4.53	8.97	2.52	6.83	2.83	13.6	4.65	9.04
c1ccc(-c2nn(-c3ccccc3)[n+](-c3ccccc3-c3ccccc3)n2)cc1	0.868	16.3	0.74	14.9	2.96	21.2	0.37	6.18	1.94	8.99	2.83	> 100	1.29	> 29.1	2.02	16.4	0.251	5.84	2.3	27.2
Cn1ccnc1C(=O)/C=C/c1ccc(CC(=O)Nc2cc(F)c(F)c(F)c2)cc1	1.4	8.22	2.14	9.59	2.44	5.5	1.26	5.65	6.63	> 25	3.4	12.3	5.59	> 25	0.941	4.11	0.795	3.54	3.64	7.69
NS(=O)(=O)c1ccc(N=Nc2cc3ccccc3c(C(=O)O)c2O)cc1		> 100		97		> 100		> 90.3		> 100		> 100		> 100		> 70.1		> 100		> 100
O=[N+]([O-])C1(CO)COC2(OC1)c1ccccc1-c1ccccc12		> 100		> 100		> 74.8		> 100		> 100		> 100		> 100		> 69.1		70.1		> 100
CCc1cc(Nc2nccc(-c3c(-c4ccc(OC)c(C(=O)Nc5c(F)cccc5F)c4)nc4ccccn34)n2)c(OC)cc1N1CCC(N2CCN(S(C)(=O)=O)CC2)CC1	> 100	> 100	> 100	> 100	> 100	> 100	> 100	> 100	> 100	> 100	> 69.3	> 100	> 100	> 100	> 47	> 100	> 100	> 100	> 100	> 100
Fc1ccc(-c2ncn(C3CCNCC3)c2-c2ccnc(Oc3ccc(Oc4ccccc4)cc3)n2)cc1	3.78	7.5	4.29	7.78	4.03	7.75	3.49	6.87	4.52	8.84	3.6	7.53	4.41	7.9	2.78	6.1	4.99	9.91	4.27	7.82
